Key:
[1] = target: T1, human A2a adenosine receptor (Homo sapiens, UniProt P29274); experiment: Ligand Binding Assay for Adenosine A2a Receptor (A2A-B); conditions: HEK293 plasma membrane, radioligand [3H]CGS21680
T1 construct: purchased PerkinElmer RB-HA2a; host or cells: HEK293
Procedure: Ligand Binding Assay for Adenosine A2a Receptor
Ligand binding assay of adenosine A2a receptor was performed using plasma membrane of HEK293 cells containing human A2a adenosine receptor (PerkinElmer, RB-HA2a) and radioligand [^3H]CGS21680 (PerkinElmer, NET 1021). Assay was set up in 96-well polypropylene plate in total volume of 200 μL by sequentially adding 20 μL 1:20 diluted membrane, 130 μL assay buffer (50 mM Tris.HCl, pH7.4 10 mM MgCl2, 1 mM EDTA) containing [^3H] CGS21680, 50 μL diluted compound (4×) or vehicle control in assay buffer. Nonspecific binding was determined by […] NECA. Reaction was carried out at room temperature for 2 hours before filtering through 96-well GF/C filter plate pre-soaked in 50 mM Tris.HCl, pH7.4 containing 0.3% polyethylenimine. Plates were then washed 5 times with cold 50 mM Tris.HCl, pH7.4, dried and sealed at the bottom. Microscintillation fluid 30 μL was added to each well and the top sealed. Plates were counted on Packard Topcount for [^3H]. Data was analyzed in Microsoft Excel and GraphPad Prism programs. (Varani, K.; Gessi, S.; Dalpiaz, A.; Borea, P. A. British Journal of Pharmacology, 1996, 117, 1693)

[2] = target: T2, human adenosine A1 receptor (Homo sapiens, UniProt P30542); experiment: Adenosine A1 Receptor Functional Assay (A1GAL2); format: cell-based; conditions: CHO-K1 cells, cAMP inducible beta-galactosidase reporter, 4 nM r-PIA/1 uM Forskolin challenge
T2 construct: expressed in transfected cells; host or cells: CHO-K1
T2 sequence (P30542 1-326): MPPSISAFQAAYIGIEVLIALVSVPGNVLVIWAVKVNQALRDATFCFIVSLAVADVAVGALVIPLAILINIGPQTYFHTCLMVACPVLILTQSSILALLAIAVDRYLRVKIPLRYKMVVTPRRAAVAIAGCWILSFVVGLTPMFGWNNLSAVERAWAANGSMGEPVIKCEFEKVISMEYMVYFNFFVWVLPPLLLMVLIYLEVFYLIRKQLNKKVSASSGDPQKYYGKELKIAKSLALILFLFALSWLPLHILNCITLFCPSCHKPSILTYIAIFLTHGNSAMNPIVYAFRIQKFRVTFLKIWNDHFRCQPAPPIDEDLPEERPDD
Procedure: Adenosine A1 Receptor Functional Assay (A1GAL2)
To initiate the functional assay, cryopreserved CHO-K1 cells overexpressing the human adenosine A1 receptor and containing a cAMP inducible beta-galactosidase reporter gene were thawed, centrifuged, DMSO containing media removed, and then seeded with fresh culture media into clear 384-well tissue culture treated plates (BD #353961) at a concentration of 10K cells/well. Prior to assay, these plates were cultured for two days at 37° C., 5% CO2, 90% Rh. On the day of the functional assay, culture media was removed and replaced with 45 uL assay medium (Hams/F-12 Modified (Mediatech # 10-080CV) supplemented w/0.1% BSA). Test compounds were diluted and 11 point curves created at a 1000× concentration in 100% DMSO. Immediately after addition of assay media to the cell plates, […] of the appropriate test compound antagonist or agonist control curves were added to cell plates using a Cartesian Hummingbird. Compound curves were allowed to incubate at room temperature on cell plates for approximately 15 minutes before addition of a 4 nM r-PIA (Sigma P4532)/1 uM Forskolin (Sigma F3917) agonist challenge (5 uL volume). A control curve of r-PIA in 1 uM Forskolin, a DMSO/Media control, and a single dose of Forskolin were also included on each plate. After additions, cell plates were allowed to incubate at 37° C., 5% CO2, 90% Rh for 5.5-6 hours. After incubation, media was removed, and cell plates were washed 1×50 uL with DPBS w/o Ca & Mg (Mediatech 21-031-CV).
Into dry wells, 20 uL of 1× Reporter Lysis Buffer (Promega E3971 (diluted in dH2O from 5× stock)) was added to each well and plates frozen at −20° C. overnight. For β-galactosidase enzyme calorimetric assay, plates were thawed out at room temperature and 20 μL 2× assay buffer (Promega) was added to each well. Color was allowed to develop at 37° C., 5% CO2, 90% Rh for 1-1.5 h or until reasonable signal appeared. The calorimetric reaction was stopped with the addition of 60 μL/well 1M sodium carbonate. Plates were counted at 405 nm on a SpectraMax Microplate Reader (Molecular Devices). Data was analyzed in Microsoft Excel and IC/EC50 curves were fit using a standardized macro.

[3] = target: T3, human adenosine A2a receptor (Homo sapiens, UniProt P29274); experiment: Adenosine A2a Receptor Functional Assay (A2AGAL2); format: cell-based; conditions: CHO-K1 cells, cAMP inducible beta-galactosidase reporter, 15 nM NECA agonist challenge
T3 construct: expressed in transfected cells; host or cells: CHO-K1
Procedure: Adenosine A2a Receptor Functional Assay (A2AGAL2)
To initiate the functional assay, cryopreserved CHO-K1 cells overexpressing the human adenosine A2a receptor and containing a cAMP inducible beta-galactosidase reporter gene were thawed, centrifuged, DMSO containing media removed, and then seeded with fresh culture media into clear 384-well tissue culture treated plates (BD #353961) at a concentration of 10K cells/well. Prior to assay, these plates were cultured for two days at 37° C., 5% CO2, 90% Rh. On the day of the functional assay, culture media was removed and replaced with 45 uL assay medium (Hams/F-12 Modified (Mediatech # 10-080CV) supplemented w/0.1% BSA). Test compounds were diluted and 11 point curves created at a 1000× concentration in 100% DMSO. Immediately after addition of assay media to the cell plates, 50 nL of the appropriate test compound antagonist or agonist control curves were added to cell plates using a Cartesian Hummingbird. Compound curves were allowed to incubate at room temperature on cell plates for approximately 15 minutes before addition of a 15 nM NECA (Sigma E2387) agonist challenge (5 uL volume). A control curve of NECA, a DMSO/Media control, and a single dose of Forskolin (Sigma F3917) were also included on each plate. After additions, cell plates were allowed to incubate at 37° C., 5% CO2, 90% Rh for 5.5-6 hours. After incubation, media was removed, and cell plates were washed 1×50 uL with DPBS w/o Ca & Mg (Mediatech 21-031-CV). Into dry wells, 20 uL of 1× Reporter Lysis Buffer (Promega E3971 (diluted in dH2O from 5× stock)) was added to each well and plates frozen at −20° C. overnight. For β-galactosidase enzyme calorimetric assay, plates were thawed out at room temperature and 20 μL 2× assay buffer (Promega) was added to each well. Color was allowed to develop at 37° C., 5% CO2, 90% Rh for 1-1.5 h or until reasonable signal appeared. The calorimetric reaction was stopped with the addition of 60 μL/well 1M sodium carbonate. Plates were counted at 405 nm on a SpectraMax Microplate Reader (Molecular Devices). Data was analyzed in Microsoft Excel and IC/EC50 curves were fit using a standardized macro.

T3 sequence (P29274 whole entry): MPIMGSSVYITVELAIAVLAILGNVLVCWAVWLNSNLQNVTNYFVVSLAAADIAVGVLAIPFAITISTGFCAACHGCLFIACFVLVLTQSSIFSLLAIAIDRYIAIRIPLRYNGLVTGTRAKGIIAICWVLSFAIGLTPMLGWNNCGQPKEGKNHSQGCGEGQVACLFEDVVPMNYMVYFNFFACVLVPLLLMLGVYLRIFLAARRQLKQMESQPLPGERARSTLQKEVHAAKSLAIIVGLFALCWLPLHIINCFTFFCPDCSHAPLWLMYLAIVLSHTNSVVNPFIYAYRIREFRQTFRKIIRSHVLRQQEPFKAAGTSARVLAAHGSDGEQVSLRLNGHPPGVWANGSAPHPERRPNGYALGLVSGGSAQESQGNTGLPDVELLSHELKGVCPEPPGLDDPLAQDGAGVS
T1 sequence (P29274 whole entry): as above

Structure (SMILES)	Ki [1]	Ki [2]	Ki [3]
Nc1nc(-c2cccs2)nc2sc(CN3CCOCC3)cc12 [Example 26, 6-Morpholin-4-ylmethyl-2-thiophen-2-yl-thieno[2,3-d]pyrimidin-4-ylamine]	0.207 µM	–	–
Nc1nc(-c2cc3ccccc3o2)nc2sc(CN3CCC(F)CC3)cc12 [Example 59, 2-Benzofuran-2-yl-6-(4-fluoropiperidin-1-ylmethyl)thieno[2,3-d]pyrimidin-4-ylamine]	–	0.634 µM	0.348 µM
Nc1nc(-c2cccc(F)c2)nc2sc(CN3CCC(F)CC3)cc12 [Example 60, 2-(3-Fluoro-phenyl)-6-(4-fluoro-piperidin-1-ylmethyl)-thieno[2,3-d]pyrimidin-4-ylamine]	–	1.25 µM	0.3 µM
Nc1nc(-c2cccc(F)c2)nc2sc(CN3CCOCC3)cc12 [Example 61, 2-(3-Fluoro-phenyl)-6-morpholin-4-ylmethyl-thieno[2,3-d]pyrimidin-4-ylamine]	–	0.616 µM	0.123 µM
N#Cc1ccc(-c2nc(N)c3cc(CN4CCC(F)CC4)sc3n2)cc1 [Example 66, 4-[4-Amino-6-(4-fluoro-piperidin-1-ylmethyl)-thieno[2,3-d]pyrimidin-2-yl]-benzonitrile]	–	8.43 µM	1.39 µM
N#Cc1ccc(-c2nc(N)c3cc(CN4CCCCCC4)sc3n2)cc1 [Example 67, 4-(4-Amino-6-azepan-1-ylmethyl-thieno[2,3-d]pyrimidin-2-yl)-benzonitrile]	–	8.55 µM	0.384 µM
COc1cccc(-c2nc(N)c3cc(CN4CCC(F)CC4)sc3n2)c1 [Example 71, 6-(4-Fluoro-piperidin-1-ylmethyl)-2-(3-methoxy-phenyl)-thieno[2,3-d]pyrimidin-4-ylamine]	–	3.22 µM	0.303 µM
N#Cc1ccc(-c2nc(N)c3cc(CN4CCC(F)CC4)sc3n2)s1 [Example 72, 5-[4-Amino-6-(4-fluoro-piperidin-1-ylmethyl)-thieno[2,3-d]pyrimidin-2-yl]-thiophene-2-carbonitrile]	–	1.91 µM	0.0913 µM
Nc1nc(-c2ncco2)nc2sc(CN3CCOCC3)cc12 [Example 75, 6-Morpholin-4-ylmethyl-2-oxazol-2-yl-thieno[2,3-d]pyrimidin-4-ylamine]	–	3.25 µM	0.356 µM
Nc1nc(-c2ccc3c(c2)OCO3)nc2sc(CN3CCC(F)CC3)cc12 [Example 76, 2-Benzo[1,3]dioxol-5-yl-6-(4-fluoro-piperidin-1-ylmethyl)-thieno[2,3-d]pyrimidin-4-ylamine]	–	0.74 µM	0.209 µM
Nc1nc(-c2ccc[nH]2)nc2sc(CN3CCC(F)CC3)cc12 [Example 81, 6-(4-Fluoro-piperidin-1-ylmethyl)-2-(1H-pyrrol-2-yl)-thieno[2,3-d]pyrimidin-4-ylamine]	–	3.89 µM	0.795 µM
COc1cccc(-c2nc(N)c3cc(CN4CCOCC4)sc3n2)c1 [Example 84, 2-(3-Methoxy-phenyl)-6-morpholin-4-ylmethyl-thieno[2,3-d]pyrimidin-4-ylamine]	–	2.99 µM	0.373 µM
N#Cc1cncc(-c2nc(N)c3cc(CN4CCC(F)CC4)sc3n2)c1 [Example 87, 5-[4-Amino-6-(4-fluoro-piperidin-1-ylmethyl)-thieno[2,3-d]pyrimidin-2-yl]-nicotinonitrile]	–	> 10 µM	6.62 µM
Nc1nc(-c2ccco2)nc2sc(CN3CCC(F)(F)C3)cc12 [Example 94, 6-(3,3-Difluoro-pyrrolidin-1-ylmethyl)-2-furan-2-yl-thieno[2,3-d]pyrimidin-4-ylamine]	–	1.24 µM	0.00823 µM
Nc1nc(-c2ccc(C(F)F)o2)nc2sc(CN3CCC(F)(F)CC3)cc12 [Example 99, 2-(5-Difluoromethyl-furan-2-yl)-6-(4,4-difluoro-piperidin-1-ylmethyl)-thieno[2,3-d]pyrimidin-4-ylamine]	–	17.8 µM	0.61 µM
Nc1nc(-c2ccc(C(F)F)o2)nc2sc(CN3CCC(F)CC3)cc12 [Example 100, 2-(5-Difluoromethyl-furan-2-yl)-6-(4-fluoro-piperidin-1-ylmethyl)-thieno[2,3-d]pyrimidin-4-ylamine]	–	1.67 µM	0.0424 µM
Nc1nc(-c2ccc(C(F)F)o2)nc2sc(CN3CCCC(F)(F)C3)cc12 [Example 101, 2-(5-Difluoromethyl-furan-2-yl)-6-(3,3-difluoro-piperidin-1-ylmethyl)-thieno[2,3-d]pyrimidin-4-ylamine]	–	2.1 µM	0.0425 µM
C[C@@H]1CCC[C@H](C)N1Cc1cc2c(N)nc(-c3ccc(C(F)F)o3)nc2s1 [Example 102, 2-(5-Difluoromethyl-furan-2-yl)-6-(2,6-dimethyl-piperidin-1-ylmethyl)-thieno[2,3-d]pyrimidin-4-ylamine]	–	0.732 µM	0.0276 µM
CCN(CC)Cc1cc2c(N)nc(-c3ccc(C(F)F)o3)nc2s1 [Example 103, 6-Diethylaminomethyl-2-(5-difluoromethyl-furan-2-yl)-thieno[2,3-d]pyrimidin-4-ylamine]	–	2.09 µM	0.131 µM
Nc1nc(-c2ccnc(Cl)c2)nc2sc(CN3CCCCC3)cc12 [Example 104, 2-(2-Chloro-pyridin-4-yl)-6-piperidin-1-ylmethyl-thieno[2,3-d]pyrimidin-4-ylamine]	–	3.86 µM	0.691 µM
Nc1nc(-c2cccc(O)c2)nc2sc(CN3CCOCC3)cc12 [Example 106, 3-(4-Amino-6-morpholin-4-ylmethyl-thieno[2,3-d]pyrimidin-2-yl)-phenol]	–	2.44 µM	0.816 µM

Source: patent US20100093702A1, “METHYLENE AMINES OF THIENO[2,3-d]PYRIMIDINE AND THEIR USE AS ADENOSINE A2a RECEPTOR ANTAGONISTS” (priority 2008, published 2010)
